# Assay results taken from patent publication US10975068B2, “6-aminopyridin-3-yl thiazoles as modulators of RORγT” (Janssen Pharmaceutica NV, priority 2016, dated 2021).
# pIC50, pKd: −log10 of the molar value. Like-named read-outs stand apart in the source and are kept apart here.
# Assays:
# [1] = molecular target: full-length human RORγt (Homo sapiens (Human), UniProt P51449); assay: RORγt (full-length human) reporter assay, Conditions B or C; assay type: cell-based; conditions: for pIC50: read-out: RORγt (FL) Reporter Assay B or C, IC50; for inhibition at 6 µM: read-out: RORγt (FL) Reporter Assay B or C, % inhibition @ 6 μM, Conditions B or C; for RORγt (FL) Reporter Assay B or C, % inhibition (value marked *): marked *: footnote not given; for inhibition at 3 µM: at 3 μM compound concentration, read-out: RORγt (FL) Reporter Assay B or C, % inhibition
# Sequence of full-length human RORγt (P51449 other isoform, or with tags, fused parts or gaps): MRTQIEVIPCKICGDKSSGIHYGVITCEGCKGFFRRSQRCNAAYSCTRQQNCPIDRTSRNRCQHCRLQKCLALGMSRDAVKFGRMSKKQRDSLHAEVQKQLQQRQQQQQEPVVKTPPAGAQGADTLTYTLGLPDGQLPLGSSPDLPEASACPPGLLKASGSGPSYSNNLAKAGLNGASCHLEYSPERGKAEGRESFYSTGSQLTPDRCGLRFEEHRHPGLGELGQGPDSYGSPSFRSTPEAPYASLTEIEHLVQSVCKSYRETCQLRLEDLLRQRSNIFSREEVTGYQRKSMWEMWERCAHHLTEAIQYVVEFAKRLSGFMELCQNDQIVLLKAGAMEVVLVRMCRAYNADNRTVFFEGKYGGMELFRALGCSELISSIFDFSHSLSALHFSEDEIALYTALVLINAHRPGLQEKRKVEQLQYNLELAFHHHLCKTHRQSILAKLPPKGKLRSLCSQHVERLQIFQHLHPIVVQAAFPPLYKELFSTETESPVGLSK
# Source text: RORγt (Full-Length Human) Reporter Assay:
# Cells used in this assay were transiently co-transfected with three different plasmids, one expressing the GAL4-DNA binding domain (DBD)-RORγt fusion protein under control of a CMV promoter (NH2-Gal4-DBD:RORC-COOH in pCMV-BD, Stratagene #211342), and two reporter plasmids—the firefly luciferase reporter under control of a GAL4 promoter (pFR-Luc 2×GAL4) and Renilla luciferase reporter under control of CMV promoter (pRL-CMV, Promega # E2261). The full-length coding sequence was used for human RORγt, i.e., nucleotides 142-1635 of human RORγt, transcript variant 2, NCBI Accession: NM_001001523.1 (SEQ ID NO:1). HEK293T cells were plated at 35,000 per well in 96-well plate in medium of DMEM with 10% FBS. After 18-22 hours incubation, the transfection was carried out by using a PEI solution with 170.5 ng total DNA/well (50 ng pCMV-BD-ROR plus 20 ng of pFR-Luc reporter and 0.5 ng of pRL-CMV reporter plus 100 ng Carrier DNA (Clontech #630440) for each well). 4-6 hours after transfection, cells were treated with compounds for overnight in the medium with final concentration of FBS 1.3% and DMSO 0.1%. After overnight (16 to 20 hours) incubation, media were removed and cells were lysed with 50 μL Glo Lysis Buffer (Promega) for 10-15 minutes followed by 10 minute incubation with 50 μL Dual Glo reagent (Promega) at room temperature. Firefly luciferase luminescence was measured using a BMG Pherastar plate reader. To each well, 50 μL Stop and Glo reagent was added and incubated for 10 minutes at room temperature. Renilla luminescence was measured using a BMG Pherastar plate reader. To calculate the effect of compounds on RORγt activity, firefly values were normalized against values of DMSO only and values of reference compound at saturating concentration, then further normalized against Renilla signals. IC50s were generated by plotting final Renilla normalized data against compound concentration and percent inhibition was calculated against DMSO control.
# Cells used in this assay were transiently co-transfected with three different plasmids, one expressing the GAL4-DNA binding domain (DBD)-RORγt fusion protein under control of a CMV promoter (NH2-Gal4-DBD:RORC-COOH in pCMV-BD, Stratagene #211342), and two reporter plasmids—the firefly luciferase reporter under control of a GAL4 promoter (pFR-Luc 2×GAL4) and Renilla luciferase reporter under control of CMV promoter (pRL-CMV, Promega # E2261). The full-length coding sequence was used for human RORγt, i.e., nucleotides 142-1635 of human RORγt, transcript variant 2, NCBI Accession: NM_001001523.1 (SEQ ID NO:1). HEK293T cells were plated at 8750 cells per well in 384-well plate in medium of DMEM with 10% FBS. After 18-22 hours incubation, the transfection was carried out by using a PEI solution with 42.6 ng total DNA/well (12.5 ng pCMV-BD-ROR plus 5 ng of pFR-Luc reporter and 0.125 ng of pRL-CMV reporter plus 25 ng Carrier DNA (Clontech #630440) for each well). 4-6 hours after transfection, cells were treated with compounds for overnight in the medium with final concentration of FBS 1.3% and DMSO 0.1%. After overnight (16 to 20 hours) incubation, media were removed and cells were lysed with 20 μL Glo Lysis Buffer (Promega) for 10-15 minutes followed by 10 minute incubation with 20 μL Dual Glo reagent (Promega) at room temperature. Firefly luciferase luminescence was measured using a BMG Pherastar plate reader. To each well, 20 μL Stop and Glo reagent was added and incubated for 10 minutes at room temperature. Renilla luminescence was measured using a BMG Pherastar plate reader. To calculate the effect of compounds on RORγt activity, firefly values were normalized against values of DMSO only and values of reference compound at saturating concentration, then further normalized against Renilla signals.
# [2] = molecular target: human RORγt ligand binding domain (RORγt LBD) (Homo sapiens (Human), UniProt P51449); assay: RORγt ThermoFluor® assay (thermal shift binding); conditions: read-out: ThermoFluor® Assay, Kd
# Sequence of human RORγt ligand binding domain (RORγt LBD) (P51449 other isoform, or with tags, fused parts or gaps): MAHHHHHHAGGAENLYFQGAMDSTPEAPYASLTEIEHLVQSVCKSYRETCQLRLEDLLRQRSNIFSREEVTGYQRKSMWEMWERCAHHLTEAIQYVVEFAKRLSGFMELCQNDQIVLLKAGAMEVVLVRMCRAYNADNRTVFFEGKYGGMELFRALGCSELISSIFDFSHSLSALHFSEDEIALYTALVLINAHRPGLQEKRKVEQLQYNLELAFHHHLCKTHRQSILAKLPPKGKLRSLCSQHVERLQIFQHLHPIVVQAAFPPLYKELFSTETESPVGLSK
# Source text: ThermoFluor® is a fluorescence based assay that estimates ligand binding affinities by measuring the effect of a ligand on protein thermal stability (Pantoliano, M. W., Petrella, E. C., Kwasnoski, J. D., Lobanov, V. S., Myslik, J., Graf, E., Carver, T., Asel, E., Springer, B. A., Lane, P., and Salemme, F. R. (2001) High-density miniaturized thermal shift assays as a general strategy for drug discovery. J Biomol Screen 6, 429-40, and Matulis, D., Kranz, J. K., Salemme, F. R., and Todd, M. J. (2005) Thermodynamic stability of carbonic anhydrase: measurements of binding affinity and stoichiometry using ThermoFluor. Biochemistry 44, 5258-66). This approach is applicable to a wide variety of systems, and rigorous in theoretical interpretation through quantitation of equilibrium binding constants (KD).
# The shift in the melting point described as a ΔTm is proportional to the concentration and affinity of the ligand. The compound potency may be compared as a rank order of either ΔTm values at a single compound concentration or in terms of KD values, estimated from concentration response curves.
# RORγt ThermoFluor® Assay Construct
# For the RORγt construct used in the ThermoFluor® assay, numbering for the nucleotide sequences was based on the reference sequence for human RORγt, transcript variant 2, NCBI Accession: NM_001001523.1 (SEQ ID NO:1). Nucleotides 850-1635 (SEQ ID NO:2) coding for the wild type human RORγt ligand binding domain (RORγt LBD) were cloned into the pHIS1 vector, a modified pET E. coli expression vector (Accelagen, San Diego), containing an in-frame N-terminal His-tag and a TurboTEV protease cleavage site (ENLYFQG, SEQ ID NO:3) upstream of the cloned insert sequence. The amino acid sequence for the RORγt construct used in the Thermofluor® assay is shown as SEQ ID NO:4.
# ThermoFluor® experiments were carried out using instruments owned by Janssen Research and Discovery, L.L.C. through its acquisition of 3-Dimensional Pharmaceuticals, Inc. 1,8-ANS (Invitrogen) was used as a fluorescent dye. Protein and compound solutions are dispensed into black 384-well polypropylene PCR microplates (Abgene) and overlayed with silicone oil (1 μL, Fluka, type DC 200) to prevent evaporation.
# Bar-coded assay plates are robotically loaded onto a thermostatically controlled PCR-type thermal block and then heated at a typical ramp-rate of 1° C./min for all experiments. Fluorescence was measured by continuous illumination with UV light (Hamamatsu LC6) supplied via fiber optic and filtered through a band-pass filter (380-400 nm; >6 OD cutoff). Fluorescence emission of the entire 384-well plate was detected by measuring light intensity using a CCD camera (Sensys, Roper Scientific) filtered to detect 500±25 nm, resulting in simultaneous and independent readings of all 384 wells. Images were collected at each temperature, and the sum of the pixel intensity in a given area of the assay plate was recorded versus temperature. Reference wells contained RORγt without compounds, and the assay conditions were as follows: • 0.065 mg/mL RORγt • 60 μM 1,8-ANS • 100 mM Hepes, pH 7.0 • 10 mM NaCl • 2.5 mM GSH • 0.002% Tween-20
# Project compounds were arranged in a pre-dosed mother plate (Greiner Bio-one) wherein compounds are serially diluted in 100% DMSO by 1:2 from a high concentration of 10 mM over 12 columns within a series (column 12 is a reference well containing DMSO, no compound). The compounds were robotically dispensed directly into assay plates (×=46 nL) using a Hummingbird capillary liquid handling instrument (Digilab). Following compound dispense, protein and dye in buffer was added to achieve the final assay volume of 3 μL, followed by 1 μL of silicone oil.
SMILES,pIC50 ([1]; Conditions B or C),inhibition at 6 µM [1] [%],pKd [2],inhibition at 3 µM [1] [%],other results
"C[C@H]1CCCCN1C(=O)c1nc(C(=O)NCC(C)(C)O)sc1-c1cnc(N[C@@H]2CCCCC2(F)F)cc1C(F)(F)F (relative stereo) [Example 31, 5-(6-(((R*)-2,2-Difluorocyclohexyl)amino)-4-(trifluoromethyl)pyridin-3-yl)-N-(2-hydroxy-2-methylpropyl)-4-((S)-2-methylpiperidine-1-carbonyl)thiazole-2-carboxamide]",8.35,111,9.82,–,–
"C[C@H]1CCCCN1C(=O)c1nc(C(=O)NCC(C)(C)O)sc1-c1cnc(N[C@H]2CCCCC2(F)F)cc1C(F)(F)F (relative stereo) [Example 32, 5-(6-(((S*)-2,2-Difluorocyclohexyl)amino)-4-(trifluoromethyl)pyridin-3-yl)-N-(2-hydroxy-2-methylpropyl)-4-((S)-2-methylpiperidine-1-carbonyl)thiazole-2-carboxamide]",8.66,109,9.59,–,–
"C[C@H]1CCCN1C(=O)c1nc(C(=O)NCC(C)(C)O)sc1-c1cnc(N[C@@H]2CCCCC2(F)F)cc1C(F)(F)F (relative stereo) [Example 35, 5-(6-(((R*)-2,2-Difluorocyclohexyl)amino)-4-(trifluoromethyl)pyridin-3-yl)-N-(2-hydroxy-2-methylpropyl)-4-((S)-2-methylpyrrolidine-1-carbonyl)thiazole-2-carboxamide]",7.70,114,8.41,–,–
"C[C@H]1CCCN1C(=O)c1nc(C(=O)NCC(C)(C)O)sc1-c1cnc(N[C@H]2CCCCC2(F)F)cc1C(F)(F)F (relative stereo) [Example 36, 5-(6-(((S*)-2,2-Difluorocyclohexyl)amino)-4-(trifluoromethyl)pyridin-3-yl)-N-(2-hydroxy-2-methylpropyl)-4-((S)-2-methylpyrrolidine-1-carbonyl)thiazole-2-carboxamide]",7.80,116,8.77,–,–
"CC[C@H](Nc1cc(C(F)F)c(-c2sc(C(=O)NCC(C)(C)O)nc2C(=O)N2CCC[C@@H]2C)cn1)C(F)(F)F [Example 92, 5-(4-(Difluoromethyl)-6-(((S)-1,1,1-trifluorobutan-2-yl)amino)pyridin-3-yl)-N-(2-hydroxy-2-methylpropyl)-4-((S)-2-methylpyrrolidine-1-carbonyl)thiazole-2-carboxamide]",–,–,–,–,"RORγt (FL) Reporter Assay B or C, % inhibition (value marked *) ([1]; Conditions B or C): 106* %"
"C[C@H](Nc1cc(C(F)F)c(-c2sc(C(=O)NCC(C)(C)O)nc2C(=O)N2CCC[C@@H]2C)cn1)C(F)(F)F [Example 145, 5-(4-(Difluoromethyl)-6-(((S)-1,1,1-trifluoropropan-2-yl)amino)pyridin-3-yl)-N-(2-hydroxy-2-methylpropyl)-4-((S)-2-methylpyrrolidine-1-carbonyl)thiazole-2-carboxamide]",–,–,–,–,"RORγt (FL) Reporter Assay B or C, % inhibition (value marked ***) ([1]; Conditions B or C, marked ***: footnote not given): 76*** %"

# More lines, main results first:
pIC50 ([1]; Conditions B or C),inhibition at 6 µM [1] [%],pKd [2],inhibition at 3 µM [1] [%],SMILES,other results
7.96,–,8.52,–,"CC[C@@H](Nc1cc(C(F)(F)F)c(-c2sc(C(=O)NCC(C)(C)O)nc2C(=O)N2CCC[C@@H]2C)cn1)C1CC1 (relative stereo) [Example 129, 5-(6-(((R*)-1-Cyclopropylpropyl)amino)-4-(trifluoromethyl)pyridin-3-yl)-N-(2-hydroxy-2-methylpropyl)-4-((S)-2-methylpyrrolidine-1-carbonyl)thiazole-2-carboxamide]","RORγt (FL) Reporter Assay B or C, % inhibition (value marked *) ([1]; Conditions B or C): 104* %"
–,–,–,100,"[2H]C([2H])(NC(=O)c1nc(C(=O)N2CCC[C@@H]2C)c(-c2cnc(N[C@@H](CC)C(F)(F)F)cc2C(F)F)s1)C(C)(C)O [Example 266, N-(1,1-Dideuterio-2-hydroxy-2-methyl-propyl)-5-[4-(difluoromethyl)-6-[[(1S)-1-(trifluoromethyl)propyl]amino]-3-pyridyl]-4-[(2S)-2-methylpyrrolidine-1-carbonyl]thiazole-2-carboxamide]",–
–,–,–,98,"C[C@H]1CCCN1C(=O)c1nc(C(=O)NCC(C)(C)O)sc1-c1cnc(NC2CCCCC2)c(C#N)c1 [Example 281, 5-[5-Cyano-6-(cyclohexylamino)-3-pyridyl]-N-(2-hydroxy-2-methyl-propyl)-4-[(2S)-2-methylpyrrolidine-1-carbonyl]thiazole-2-carboxamide]",pIC50 [1]: 6.08
–,–,–,104,"[2H]C([2H])(NC(=O)c1nc(C(=O)N2CCC[C@@H]2C)c(-c2cnc(N[C@@H](C)C(F)(F)F)cc2C(F)F)s1)C(C)(C)O [Example 286, 5-(4-(Difluoromethyl)-6-(((S)-1,1,1-trifluoropropan-2-yl)amino)pyridin-3-yl)-N-(2-hydroxy-2-methylpropyl-1,1-d2)-4-((S)-2-methylpyrrolidine-1-carbonyl)thiazole-2-carboxamide]",–
